Columns and labels:
[1] = test system: K. pneumoniae expressing the Class A carbapenemase KPC-2; experiment: Broth microdilution MIC assay with meropenem, K. pneumoniae KPC-2; assay type: cell-based; conditions: Fixed Mero (meropenem) 4 μg/mL; K. p. 156319 KPC-3
Summary of the method: (§1)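 Test compound was titrated 2-fold from 16 to 0.125 μg/mL in cation-adjusted Mueller Hinton broth against a fixed 4 μg/ml β-lactam overlay. Plates were inoculated per CLSI broth microdilution, incubated 16-20 hours at 37° C, and the MIC of the test compound was read visually.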

OXA-48 = OXA-48 (UniProt Q6XEC0); experiment: β-lactamase enzyme inhibition assay, Class D oxacillinase; assay type: biochemical; conditions: read-out: OXA-48
AmpC = target: T1, AmpC (Enterobacter cloacae, UniProt P05364); experiment: β-lactamase enzyme inhibition assay, p99 AmpC (nitrocefin substrate); assay type: biochemical
T1 construct: made in house; host or cells: E. coli BL21(DE3)
Summary of the method: (§2)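 Read-out is the rate of β-lactam ring hydrolysis monitored by absorbance. Recombinant native enzymes were first incubated with compound at 37 °C for 15 min. The IC50 is the inhibitor concentration that halves the initial hydrolysis rate.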

SHV-5 = target: T2, SHV-5 (Klebsiella pneumoniae, UniProt P0A3M1); experiment: β-lactamase enzyme inhibition assay, SHV-5 (cefotaxime substrate); assay type: biochemical
T2 construct: made in house; host or cells: E. coli BL21(DE3)
Summary of the method: as §2, with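 “absorbance: 300 nm for imipenem with KPC-2 and 260 nm for cefotaxime with SHV-5.” for “absorbance.”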

KPC-2 = target: T3, KPC-2 (Klebsiella pneumoniae, UniProt Q9F663); experiment: β-lactamase enzyme inhibition assay, KPC-2 (imipenem substrate); assay type: biochemical; conditions: Class A; imipenem substrate, 300 nm; read-out: KPC-2
T3 construct: made in house; host or cells: E. coli BL21(DE3)
Summary of the method: as §2, with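 “absorbance: 300 nm for imipenem with KPC-2 and 260 nm for cefotaxime with SHV-5.” for “absorbance.”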

[2] = test system: K. pneumoniae producing the Class D carbapenemase OXA-48; experiment: Broth microdilution MIC assay with meropenem, K. pneumoniae OXA-48; assay type: cell-based; conditions: Fixed Mero (meropenem) 4 μg/mL; K. p. 11978 OXA-48
Summary of the method: as §1

[3] = test system: P. aeruginosa expressing the Class B carbapenemase VIM-2; experiment: Broth microdilution MIC assay with meropenem, P. aeruginosa VIM-2; assay type: cell-based; conditions: Fixed Mero (meropenem) 4 μg/mL; P. aerug. 2775 VIM-2
Summary of the method: as §1

[4] = test system: K. pneumoniae expressing the class A carbapenemase KPC-2 and the class B carbapenemase VIM-4; experiment: Broth microdilution MIC assay with meropenem, K. pneumoniae KPC-2 and VIM-4; assay type: cell-based; conditions: Fixed Mero (meropenem) 4 μg/mL; K. p. A-1797 KPC-2 VIM-4
Summary of the method: as §1

[5] = test system: E. coli expressing the Class A Extended Spectrum Beta-Lactamase (ESBL) CTX-M-15; experiment: Broth microdilution MIC assay with ceftazidime, E. coli CTX-M-15; assay type: cell-based; conditions: Fixed CAZ (ceftazidime) 4 μg/mL; E. coli ESBL4 CTX-M-15
Summary of the method: as §1

VIM-2 = target: T4, VIM-2 (Escherichia coli, UniProt Q5U7L7); experiment: β-lactamase enzyme inhibition assay, VIM-2 (nitrocefin substrate); assay type: biochemical; conditions: Class B; nitrocefin substrate, 486 nm; read-out: VIM-2
T4 construct: made in house; host or cells: E. coli BL21(DE3)
Summary of the method: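 Purified VIM-2 (Q sepharose anion exchange, Hepes pH 7.5, >90% pure) was preincubated with inhibitor at 37 °C for 15 min, then nitrocefin added at 100 μM final. Absorbance at 486 nm was followed for 10 min; IC50 was taken from maximum hydrolysis rates relative to inhibitor-free controls.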

[6] = test system: E. cloacae expressing the Class C P99; experiment: Broth microdilution MIC assay with ceftazidime, E. cloacae P99; assay type: cell-based; conditions: Fixed CAZ (ceftazidime) 4 μg/mL; E. cl. 144200 p99 AmpC
Summary of the method: as §1

T2 sequence (P0A3M1 22-286): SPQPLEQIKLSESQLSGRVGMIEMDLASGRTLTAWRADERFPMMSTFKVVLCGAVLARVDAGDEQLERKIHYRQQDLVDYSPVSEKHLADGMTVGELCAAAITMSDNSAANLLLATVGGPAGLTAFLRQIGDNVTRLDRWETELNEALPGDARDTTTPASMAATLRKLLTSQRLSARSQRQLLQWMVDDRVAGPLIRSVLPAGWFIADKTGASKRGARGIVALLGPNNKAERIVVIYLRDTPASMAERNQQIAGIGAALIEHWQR
T1 sequence (P05364 21-381): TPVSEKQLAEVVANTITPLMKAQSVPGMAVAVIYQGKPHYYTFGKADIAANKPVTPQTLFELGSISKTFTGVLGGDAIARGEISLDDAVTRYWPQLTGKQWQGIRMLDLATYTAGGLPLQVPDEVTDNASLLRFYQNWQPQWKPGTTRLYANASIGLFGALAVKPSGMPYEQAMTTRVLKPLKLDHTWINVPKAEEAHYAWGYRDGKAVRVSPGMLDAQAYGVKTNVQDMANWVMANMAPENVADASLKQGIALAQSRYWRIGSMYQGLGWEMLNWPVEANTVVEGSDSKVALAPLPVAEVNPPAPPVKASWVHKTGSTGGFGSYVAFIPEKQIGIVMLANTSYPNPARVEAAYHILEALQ
T3 sequence (Q9F663 25-293, looked up): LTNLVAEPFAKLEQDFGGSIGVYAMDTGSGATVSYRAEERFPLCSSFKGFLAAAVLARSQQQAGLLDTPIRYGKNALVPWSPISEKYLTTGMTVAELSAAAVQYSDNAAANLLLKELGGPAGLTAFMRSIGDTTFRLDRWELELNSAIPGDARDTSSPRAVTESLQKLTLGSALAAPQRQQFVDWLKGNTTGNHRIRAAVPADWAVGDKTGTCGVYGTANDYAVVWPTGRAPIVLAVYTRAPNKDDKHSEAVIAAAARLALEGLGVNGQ

Row | SMILES | MIC (μg/mL) of Exemplary Compounds in presence of fixed β-lactams: K. p. 156319 KPC-3 [1] | IC50 (OXA-48) [nM] | IC50 (AmpC) [nM] | IC50 (SHV-5) [nM] | IC50 (KPC-2) [nM] | MIC (μg/mL) of Exemplary Compounds in presence of fixed β-lactams: K. p. 11978 OXA-48 [2] | MIC (μg/mL) of Exemplary Compounds in presence of fixed β-lactams: P. aerug. 2775 VIM-2 [3] | MIC (μg/mL) of Exemplary Compounds in presence of fixed β-lactams: K. p. A-1797 KPC-2 VIM-4 [4] | MIC (μg/mL) of Exemplary Compounds in presence of fixed β-lactams: E. coli ESBL4 CTX-M-15 [5] | IC50 (VIM-2) [nM] | MIC (μg/mL) of Exemplary Compounds in presence of fixed β-lactams: E. cl. 144200 p99 AmpC [6]
1 | NCc1cn(CCC(=O)N[C@H]2Cc3cccc(C(=O)O)c3OB2O)nn1 [Example 30, (R)-3-(3-(4-(aminomethyl)-1H-1,2,3-triazol-1-yl)propanamido)-2-hydroxy-3,4-dihydro-2H-benzo[e][1,2]oxaborinine-8-carboxylic acid] | C (C represents an MIC of <1 μg/mL) | 100 to 1000 | < 100 | < 100 | < 100 | B (B represents an MIC between 1 and 16 μg/mL inclusive) | B (B represents an MIC between 1 and 16 μg/mL inclusive) | B (B represents an MIC between 1 and 16 μg/mL inclusive) | C (C represents an MIC of <1 μg/mL) | 100 to 1000 | C (C represents an MIC of <1 μg/mL)
2 | COc1c(C[C@H](NC(=O)Cn2cc(CN)nn2)B(O)O)cccc1C(=O)O [Example 31, (R)-3-(2-(2-(4-(aminomethyl)-1H-1,2,3-triazol-1-yl)acetamido)-2-boronoethyl)-2-methoxybenzoic acid] | B (B represents an MIC between 1 and 16 μg/mL inclusive) | 1000 to 10000 | 100 to 1000 | < 100 | < 100 | A (A represents an MIC>16 μg/mL) | C (C represents an MIC of <1 μg/mL) | B (B represents an MIC between 1 and 16 μg/mL inclusive) | B (B represents an MIC between 1 and 16 μg/mL inclusive) | 100 to 1000 | C (C represents an MIC of <1 μg/mL)
3 | O=C(Cn1nnc(CN2CCOCC2)c1CN1CCOCC1)N[C@H]1Cc2cccc(C(=O)O)c2OB1O [Example 32, (R)-3-(2-(4,5-bis(morpholinomethyl)-1H-1,2,3-triazol-1-yl)acetamido)-2-hydroxy-3,4-dihydro-2H-benzo[e][1,2]oxaborinine-8-carboxylic acid] | B (B represents an MIC between 1 and 16 μg/mL inclusive) | 100 to 1000 | < 100 | < 100 | < 100 | A (A represents an MIC>16 μg/mL) | B (B represents an MIC between 1 and 16 μg/mL inclusive) | A (A represents an MIC>16 μg/mL) | B (B represents an MIC between 1 and 16 μg/mL inclusive) | 100 to 1000 | A (A represents an MIC>16 μg/mL)
4 | CC(C)(C(=O)N[C@H]1Cc2cccc(C(=O)O)c2OB1O)n1cc(CN)nn1 [Example 33, (R)-3-(2-(4-(aminomethyl)-1H-1,2,3-triazol-1-yl)-2-methylpropanamido)-2-hydroxy-3,4-dihydro-2H-benzo[e][1,2]oxaborinine-8-carboxylic acid] | B (B represents an MIC between 1 and 16 μg/mL inclusive) | < 100 | < 100 | < 100 | < 100 | B (B represents an MIC between 1 and 16 μg/mL inclusive) | C (C represents an MIC of <1 μg/mL) | C (C represents an MIC of <1 μg/mL) | C (C represents an MIC of <1 μg/mL) | < 100 | C (C represents an MIC of <1 μg/mL)

From US11046716B2, “Beta-lactamase inhibitors” (priority 2015, dated 2021)
